Experiments:
Assay in all cases: KinomeScan kinase panel
Assay type in all cases: binding
[1] = biological target: T1, ABL1(F317I)-phosphorylated (Homo sapiens, UniProt P00519, F317I)
T1 construct: purchased DiscoveRx Corporation (KinomeScan)
Procedure, shortened: (§1)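 Panel screen (KinomeScan, 442 kinases). One test concentration, 1000 nM; no dose-response.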

[2] = biological target: T2, ABL1(F317L)-nonphosphorylated (Homo sapiens, UniProt P00519, F317L)
T2 construct: purchased DiscoveRx Corporation (KinomeScan)
Procedure, shortened: as §1

[3] = biological target: T3, ABL1(T315I)-phosphorylated (Homo sapiens, UniProt P00519, T315I)
T3 construct: purchased DiscoveRx Corporation (KinomeScan)
Procedure, shortened: as §1

[4] = biological target: T4, ACVR1B (Homo sapiens, UniProt P36896)
T4 construct: purchased DiscoveRx Corporation (KinomeScan)
Procedure, shortened: as §1

[5] = biological target: T5, ACVR2B (Homo sapiens, UniProt Q13705)
T5 construct: purchased DiscoveRx Corporation (KinomeScan)
Procedure, shortened: as §1

[6] = biological target: T6, BMPR2 (Homo sapiens, UniProt Q13873)
T6 construct: purchased DiscoveRx Corporation (KinomeScan)
Procedure, shortened: as §1

[7] = biological target: T7, CAMKK1 (Homo sapiens, UniProt Q8N5S9)
T7 construct: purchased DiscoveRx Corporation (KinomeScan)
Procedure, shortened: as §1

[8] = biological target: T8, CDC2L1 (Homo sapiens, UniProt P21127)
T8 construct: purchased DiscoveRx Corporation (KinomeScan)
Procedure, shortened: as §1

[9] = biological target: T9, CDK11 (Homo sapiens, UniProt Q9BWU1)
T9 construct: purchased DiscoveRx Corporation (KinomeScan)
Procedure, shortened: as §1

[10] = biological target: T10, CDK8 (Homo sapiens, UniProt P49336)
T10 construct: purchased DiscoveRx Corporation (KinomeScan)
T10 sequence (P49336 whole entry): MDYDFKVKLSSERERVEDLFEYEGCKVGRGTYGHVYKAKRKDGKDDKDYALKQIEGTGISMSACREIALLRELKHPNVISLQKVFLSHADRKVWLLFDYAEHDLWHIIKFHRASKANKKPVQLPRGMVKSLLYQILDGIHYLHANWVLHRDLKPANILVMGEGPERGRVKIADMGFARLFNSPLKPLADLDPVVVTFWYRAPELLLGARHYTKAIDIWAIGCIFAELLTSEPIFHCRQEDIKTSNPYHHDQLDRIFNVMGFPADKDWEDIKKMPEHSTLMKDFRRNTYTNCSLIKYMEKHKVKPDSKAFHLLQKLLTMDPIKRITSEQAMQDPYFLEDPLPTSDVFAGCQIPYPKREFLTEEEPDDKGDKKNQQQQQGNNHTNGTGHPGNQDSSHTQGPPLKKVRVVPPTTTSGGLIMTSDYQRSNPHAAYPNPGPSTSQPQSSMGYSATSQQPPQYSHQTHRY
Procedure, shortened: as §1

[11] = biological target: T11, CHEK1 (Homo sapiens, UniProt O14757)
T11 construct: purchased DiscoveRx Corporation (KinomeScan)
Procedure, shortened: as §1

[12] = biological target: T12, CLK3 (Homo sapiens, UniProt P49761)
T12 construct: purchased DiscoveRx Corporation (KinomeScan)
T12 sequence (P49761 whole entry): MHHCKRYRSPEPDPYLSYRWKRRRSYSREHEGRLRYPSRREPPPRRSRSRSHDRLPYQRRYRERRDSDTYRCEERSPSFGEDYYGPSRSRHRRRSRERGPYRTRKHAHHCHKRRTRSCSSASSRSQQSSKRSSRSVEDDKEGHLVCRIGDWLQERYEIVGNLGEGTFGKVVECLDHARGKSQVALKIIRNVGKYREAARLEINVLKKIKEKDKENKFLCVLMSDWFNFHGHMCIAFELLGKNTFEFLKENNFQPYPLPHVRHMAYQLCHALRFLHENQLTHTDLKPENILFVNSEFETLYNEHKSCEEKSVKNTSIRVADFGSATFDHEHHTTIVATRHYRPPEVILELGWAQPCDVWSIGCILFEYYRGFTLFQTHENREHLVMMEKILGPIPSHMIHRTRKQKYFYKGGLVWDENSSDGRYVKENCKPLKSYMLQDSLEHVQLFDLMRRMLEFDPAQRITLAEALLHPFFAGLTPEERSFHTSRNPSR
Procedure, shortened: as §1

[13] = biological target: T13, DAPK1 (Homo sapiens, UniProt P53355)
T13 construct: purchased DiscoveRx Corporation (KinomeScan)
Procedure, shortened: as §1

[14] = biological target: T14, DDR2 (Homo sapiens, UniProt Q16832)
T14 construct: purchased DiscoveRx Corporation (KinomeScan)
Procedure, shortened: as §1

[15] = biological target: T15, EPHA2 (Homo sapiens, UniProt P29317)
T15 construct: purchased DiscoveRx Corporation (KinomeScan)
Procedure, shortened: as §1

[16] = biological target: T16, FGFR1 (Homo sapiens, UniProt P11362)
T16 construct: purchased DiscoveRx Corporation (KinomeScan)
Procedure, shortened: as §1

[17] = tested on: FLT3(ITD)
Procedure, shortened: as §1

[18] = biological target: T17, FYN (Homo sapiens, UniProt P06241)
T17 construct: purchased DiscoveRx Corporation (KinomeScan)
Procedure, shortened: as §1

[19] = biological target: T18, IKK-beta (Homo sapiens, UniProt O14920)
T18 construct: purchased DiscoveRx Corporation (KinomeScan)
T18 sequence (O14920 whole entry): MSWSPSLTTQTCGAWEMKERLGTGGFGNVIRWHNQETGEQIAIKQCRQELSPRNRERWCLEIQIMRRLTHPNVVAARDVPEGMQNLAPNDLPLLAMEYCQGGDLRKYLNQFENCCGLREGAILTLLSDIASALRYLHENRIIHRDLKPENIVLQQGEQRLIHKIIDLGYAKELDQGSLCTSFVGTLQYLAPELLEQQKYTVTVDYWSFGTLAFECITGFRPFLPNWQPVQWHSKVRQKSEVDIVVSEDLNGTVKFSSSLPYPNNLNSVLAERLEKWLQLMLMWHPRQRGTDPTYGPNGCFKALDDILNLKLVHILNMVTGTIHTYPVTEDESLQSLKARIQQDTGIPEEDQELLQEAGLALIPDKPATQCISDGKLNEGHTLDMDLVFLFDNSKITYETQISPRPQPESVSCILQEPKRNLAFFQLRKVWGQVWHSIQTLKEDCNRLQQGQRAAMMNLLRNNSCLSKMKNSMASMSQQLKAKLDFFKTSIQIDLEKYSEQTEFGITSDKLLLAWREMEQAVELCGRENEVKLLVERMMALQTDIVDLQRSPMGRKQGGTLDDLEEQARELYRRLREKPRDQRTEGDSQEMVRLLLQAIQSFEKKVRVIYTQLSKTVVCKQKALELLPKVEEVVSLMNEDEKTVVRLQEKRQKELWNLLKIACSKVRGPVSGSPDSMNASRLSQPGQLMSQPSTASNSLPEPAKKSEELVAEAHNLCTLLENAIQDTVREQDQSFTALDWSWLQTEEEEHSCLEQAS
Procedure, shortened: as §1

[20] = biological target: T19, LRRK2 (Homo sapiens, UniProt Q5S007)
T19 construct: purchased DiscoveRx Corporation (KinomeScan)
Procedure, shortened: as §1

[21] = biological target: T20, MAP4K2 (Homo sapiens, UniProt Q12851)
T20 construct: purchased DiscoveRx Corporation (KinomeScan)
Procedure, shortened: as §1

[22] = biological target: T21, MLCK (Homo sapiens, UniProt Q32MK0)
T21 construct: purchased DiscoveRx Corporation (KinomeScan)
T21 sequence (Q32MK0 whole entry): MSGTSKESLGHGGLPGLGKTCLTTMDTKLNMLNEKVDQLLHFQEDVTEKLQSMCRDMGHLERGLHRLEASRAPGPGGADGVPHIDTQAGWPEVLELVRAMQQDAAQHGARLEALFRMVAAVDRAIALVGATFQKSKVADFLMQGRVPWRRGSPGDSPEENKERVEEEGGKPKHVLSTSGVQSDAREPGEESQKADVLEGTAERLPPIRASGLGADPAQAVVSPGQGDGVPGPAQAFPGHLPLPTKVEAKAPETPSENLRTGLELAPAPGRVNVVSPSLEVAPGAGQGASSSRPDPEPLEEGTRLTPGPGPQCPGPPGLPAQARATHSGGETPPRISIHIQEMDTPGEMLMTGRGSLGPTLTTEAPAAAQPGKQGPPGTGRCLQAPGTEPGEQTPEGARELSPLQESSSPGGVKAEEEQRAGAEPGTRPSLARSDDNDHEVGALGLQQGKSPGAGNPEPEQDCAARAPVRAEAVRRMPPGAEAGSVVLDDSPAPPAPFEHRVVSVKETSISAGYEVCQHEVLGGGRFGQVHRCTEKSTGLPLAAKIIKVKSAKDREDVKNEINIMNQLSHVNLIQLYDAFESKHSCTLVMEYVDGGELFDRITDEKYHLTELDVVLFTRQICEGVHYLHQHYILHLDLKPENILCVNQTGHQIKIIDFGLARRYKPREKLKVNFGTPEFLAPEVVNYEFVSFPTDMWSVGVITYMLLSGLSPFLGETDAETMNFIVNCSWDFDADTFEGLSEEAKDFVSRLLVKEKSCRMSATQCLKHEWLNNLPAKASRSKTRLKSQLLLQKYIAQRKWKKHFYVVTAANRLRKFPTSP
Procedure, shortened: as §1

[23] = biological target: T22, MYLK (Homo sapiens, UniProt Q15746)
T22 construct: purchased DiscoveRx Corporation (KinomeScan)
Procedure, shortened: as §1

[24] = biological target: T23, PFTK (Homo sapiens, UniProt O94921)
T23 construct: purchased DiscoveRx Corporation (KinomeScan)
Procedure, shortened: as §1

[25] = biological target: T24, PIK3CA (Homo sapiens, UniProt P42336)
T24 construct: purchased DiscoveRx Corporation (KinomeScan)
Procedure, shortened: as §1

[26] = biological target: T25, PIP5K1C (Homo sapiens, UniProt O60331)
T25 construct: purchased DiscoveRx Corporation (KinomeScan)
Procedure, shortened: as §1

[27] = biological target: T26, PKA7 (Homo sapiens, UniProt Q9P286)
T26 construct: purchased DiscoveRx Corporation (KinomeScan panel)
Procedure, shortened: as §1

[28] = biological target: T27, RIPK2 (Homo sapiens, UniProt O43353)
T27 construct: purchased DiscoveRx Corporation
Procedure, shortened: as §1

[29] = biological target: T28, ROS1 (Homo sapiens, UniProt P08922)
T28 construct: purchased DiscoveRx Corporation
Procedure, shortened: as §1

[30] = biological target: T29, SIK2 (Homo sapiens, UniProt Q9H0K1)
T29 construct: purchased DiscoveRx Corporation (KinomeScan)
Procedure, shortened: as §1

[31] = biological target: T30, SRMS (Homo sapiens, UniProt Q9H3Y6)
T30 construct: purchased DiscoveRx Corporation (KinomeScan)
T30 sequence (Q9H3Y6 whole entry): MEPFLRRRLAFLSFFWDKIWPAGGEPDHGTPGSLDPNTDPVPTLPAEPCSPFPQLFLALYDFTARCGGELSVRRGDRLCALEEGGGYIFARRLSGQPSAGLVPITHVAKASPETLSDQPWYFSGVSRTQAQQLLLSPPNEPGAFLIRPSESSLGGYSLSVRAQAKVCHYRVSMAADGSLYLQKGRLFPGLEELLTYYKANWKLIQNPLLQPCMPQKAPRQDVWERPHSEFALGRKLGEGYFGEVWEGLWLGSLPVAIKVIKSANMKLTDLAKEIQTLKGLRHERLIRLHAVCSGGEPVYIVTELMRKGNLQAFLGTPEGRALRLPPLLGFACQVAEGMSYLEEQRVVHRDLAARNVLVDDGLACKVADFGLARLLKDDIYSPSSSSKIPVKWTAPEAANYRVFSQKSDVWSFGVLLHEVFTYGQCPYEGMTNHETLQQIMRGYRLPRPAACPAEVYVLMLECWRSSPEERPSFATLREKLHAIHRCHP
Procedure, shortened: as §1

[32] = biological target: T31, SRPK3 (Homo sapiens, UniProt Q9UPE1)
T31 construct: purchased DiscoveRx Corporation (KinomeScan)
Procedure, shortened: as §1

[33] = biological target: T32, TIE1 (Homo sapiens, UniProt P35590)
T32 construct: purchased DiscoveRx Corporation (KinomeScan)
T32 sequence (P35590 22-1138): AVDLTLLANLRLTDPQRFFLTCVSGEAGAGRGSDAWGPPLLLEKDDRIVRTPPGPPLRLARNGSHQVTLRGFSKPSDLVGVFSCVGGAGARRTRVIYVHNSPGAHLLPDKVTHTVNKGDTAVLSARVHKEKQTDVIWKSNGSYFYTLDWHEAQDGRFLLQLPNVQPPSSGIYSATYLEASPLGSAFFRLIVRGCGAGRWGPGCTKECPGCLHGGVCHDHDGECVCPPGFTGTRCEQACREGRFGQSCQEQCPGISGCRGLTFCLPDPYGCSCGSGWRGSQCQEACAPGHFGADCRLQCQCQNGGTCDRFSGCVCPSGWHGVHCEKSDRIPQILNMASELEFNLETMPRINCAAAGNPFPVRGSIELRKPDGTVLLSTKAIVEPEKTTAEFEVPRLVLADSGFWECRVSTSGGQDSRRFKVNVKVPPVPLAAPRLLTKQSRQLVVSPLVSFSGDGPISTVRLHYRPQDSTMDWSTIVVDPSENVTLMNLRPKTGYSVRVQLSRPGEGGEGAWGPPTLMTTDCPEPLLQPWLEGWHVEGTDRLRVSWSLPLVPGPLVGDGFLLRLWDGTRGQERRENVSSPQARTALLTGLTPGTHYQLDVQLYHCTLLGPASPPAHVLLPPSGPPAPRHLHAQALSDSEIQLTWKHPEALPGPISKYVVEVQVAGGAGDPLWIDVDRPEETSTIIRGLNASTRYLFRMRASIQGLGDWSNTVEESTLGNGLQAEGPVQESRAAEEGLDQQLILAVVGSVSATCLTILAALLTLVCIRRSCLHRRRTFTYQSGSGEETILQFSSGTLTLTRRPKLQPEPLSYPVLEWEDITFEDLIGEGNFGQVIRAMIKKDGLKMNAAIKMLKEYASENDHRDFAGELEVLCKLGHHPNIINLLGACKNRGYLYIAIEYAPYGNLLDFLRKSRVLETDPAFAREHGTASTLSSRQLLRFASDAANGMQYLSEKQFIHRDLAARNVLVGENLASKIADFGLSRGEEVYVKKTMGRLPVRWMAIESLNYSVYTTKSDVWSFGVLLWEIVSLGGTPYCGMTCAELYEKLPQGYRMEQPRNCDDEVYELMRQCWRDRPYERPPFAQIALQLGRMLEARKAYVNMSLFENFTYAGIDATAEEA
Procedure, shortened: as §1

[34] = biological target: T33, TNK1 (Homo sapiens, UniProt Q13470)
T33 construct: purchased DiscoveRx Corporation (KinomeScan)
T33 sequence (Q13470 whole entry): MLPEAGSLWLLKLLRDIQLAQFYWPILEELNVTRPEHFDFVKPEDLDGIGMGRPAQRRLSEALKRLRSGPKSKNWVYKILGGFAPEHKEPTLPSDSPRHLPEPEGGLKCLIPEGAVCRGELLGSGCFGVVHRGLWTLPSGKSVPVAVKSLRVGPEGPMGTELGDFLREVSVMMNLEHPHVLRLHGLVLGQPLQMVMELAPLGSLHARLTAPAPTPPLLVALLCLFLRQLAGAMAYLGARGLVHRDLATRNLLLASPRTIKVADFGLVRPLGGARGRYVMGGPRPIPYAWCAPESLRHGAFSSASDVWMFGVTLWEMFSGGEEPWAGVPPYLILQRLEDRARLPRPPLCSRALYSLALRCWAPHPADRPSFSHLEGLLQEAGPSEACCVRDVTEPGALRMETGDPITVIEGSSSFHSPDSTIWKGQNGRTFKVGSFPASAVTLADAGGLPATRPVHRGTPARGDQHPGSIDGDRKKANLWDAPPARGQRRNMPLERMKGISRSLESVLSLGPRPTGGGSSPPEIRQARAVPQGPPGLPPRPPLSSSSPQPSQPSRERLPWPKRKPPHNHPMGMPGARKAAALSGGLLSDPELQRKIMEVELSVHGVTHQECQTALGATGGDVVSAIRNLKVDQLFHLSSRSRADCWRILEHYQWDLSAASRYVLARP
Procedure, shortened: as §1

[35] = tested on: TRPM6
Procedure, shortened: as §1

[36] = biological target: T34, TTK (Homo sapiens, UniProt P33981)
T34 construct: purchased DiscoveRx Corporation (KinomeScan)
Procedure, shortened: as §1

[37] = biological target: T35, YANK1 (Homo sapiens, UniProt Q8WU08)
T35 construct: purchased DiscoveRx Corporation (KinomeScan service)
Procedure, shortened: as §1

In the case of CCOP(=O)(CN1CCC(COc2cc3nccc(Oc4ccc(NC(=O)C5(C(=O)Nc6ccc(F)cc6)CC5)cc4F)c3cc2OC)CC1)OCC [Example 10, N1-[4-[[7-[[1-(diethoxyphosphorylmethyl)-4-piperidinyl]methoxyl]-6-methoxyl-4-quinolyl]oxyl]-3-fluorophenyl]-N1′-(4-fluorophenyl)cyclopropane-1,1-dicarboxamide], the “% Ctrl@1000 nM” value [1] is reported as 70 % Ctrl, the “% Ctrl@1000 nM” value [2] is reported as 10 % Ctrl and the “% Ctrl@1000 nM” value [3] is reported as 75 % Ctrl. The “% Ctrl@1000 nM” value [4] was 100 % Ctrl, the “% Ctrl@1000 nM” value [5] was 100 % Ctrl and the “% Ctrl@1000 nM” value [6] was 100 % Ctrl. For the same molecule, the “% Ctrl@1000 nM” value [7] was 32 % Ctrl, the “% Ctrl@1000 nM” value [8] was 100 % Ctrl and the “% Ctrl@1000 nM” value [9] was 67 % Ctrl. The “% Ctrl@1000 nM” value [10] was 76 % Ctrl, the “% Ctrl@1000 nM” value [11] was 100 % Ctrl and the “% Ctrl@1000 nM” value [12] was 100 % Ctrl. For the same molecule, the “% Ctrl@1000 nM” value [13] was 100 % Ctrl, the “% Ctrl@1000 nM” value [14] was 7.8 % Ctrl and the “% Ctrl@1000 nM” value [15] was 4.8 % Ctrl. For the same molecule, the “% Ctrl@1000 nM” value [16] was 100 % Ctrl, the “% Ctrl@1000 nM” value [17] was 2.8 % Ctrl and the “% Ctrl@1000 nM” value [18] was 48 % Ctrl. For the same molecule, the “% Ctrl@1000 nM” value [19] was 100 % Ctrl, the “% Ctrl@1000 nM” value [20] was 100 % Ctrl and the “% Ctrl@1000 nM” value [21] was 100 % Ctrl. The “% Ctrl@1000 nM” value [22] was 100 % Ctrl, the “% Ctrl@1000 nM” value [23] was 100 % Ctrl and the “% Ctrl@1000 nM” value [24] was 100 % Ctrl. For the same molecule, the “% Ctrl@1000 nM” value [25] was 100 % Ctrl, the “% Ctrl@1000 nM” value [26] was 100 % Ctrl and the “% Ctrl@1000 nM” value [27] was 100 % Ctrl. For the same molecule, the “% Ctrl@1000 nM” value [28] was 30 % Ctrl, the “% Ctrl@1000 nM” value [29] was 29 % Ctrl and the “% Ctrl@1000 nM” value [30] was 100 % Ctrl. For the same molecule, the “% Ctrl@1000 nM” value [31] was 8.9 % Ctrl, the “% Ctrl@1000 nM” value [32] was 100 % Ctrl and the “% Ctrl@1000 nM” value [33] was 4 % Ctrl. For the same molecule, the “% Ctrl@1000 nM” value [34] was 30 % Ctrl, the “% Ctrl@1000 nM” value [35] was 86 % Ctrl and the “% Ctrl@1000 nM” value [36] was 84 % Ctrl. For the same molecule, the “% Ctrl@1000 nM” value [37] was 100 % Ctrl.
